# Measurements as given in patent US12185723B2, “Herbicidally active 3-phenylisoxazoline-5-carboxamides of s-containing cyclopentenylcarboxylic esters” (Bayer Aktiengesellschaft, priority 2019, dated 2025).
# Legend:
# Type in all cases: in vivo
# Alopecurus myosuroides = assay: Post-emergence herbicidal action against ALOMY; conditions: visual rating about 3 weeks after treatment
# Procedure: (§1) Post-Emergence Herbicidal Action Against Harmful Plants and Crop Plant Compatibility Seeds of monocotyledonous and dicotyledonous weeds and crop plants are placed in sandy loam in plastic or wood-fibre pots, covered with soil and cultivated in a greenhouse under controlled growth conditions. 2 to 3 weeks after sowing, the test plants are treated at the one-leaf stage. The compounds of the invention, formulated in the form of wettable powders (WP) or as emulsion concentrates (EC), are then sprayed onto the green parts of the plants as aqueous suspension or emulsion with addition of 0.5% additive at a water application rate of 600 l/ha (converted). After the test plants have been kept in the greenhouse under optimum growth conditions for about 3 weeks, the activity of the preparations is rated visually in comparison to untreated controls. For example, 100% activity=the plants have died, 0% activity=like control plants. [table]
# Avena fatua = assay: Post-emergence herbicidal action against AVEFA; conditions: visual rating about 3 weeks after treatment
# Procedure: as §1
# DIGSA = assay: Post-emergence herbicidal action against DIGSA; conditions: visual rating about 3 weeks after treatment
# Procedure: as §1, with “plants.” for “plants. [table]”
# Echinochloa crus-galli = assay: Post-emergence herbicidal action against ECHCG; conditions: visual rating about 3 weeks after treatment
# Procedure: as §1
# Lolium rigidum = assay: Post-emergence herbicidal action against LOLRI; conditions: visual rating about 3 weeks after treatment
# Procedure: as §1
# Setaria viridis = assay: Post-emergence herbicidal action against SETVI; conditions: visual rating about 3 weeks after treatment
# Procedure: as §1
# Abutilon theophrasti = assay: Post-emergence herbicidal action against ABUTH; conditions: 20 g a.i./ha, visual rating about 3 weeks after treatment
# Procedure: as §1
# Amaranthus retroflexus = assay: Post-emergence herbicidal action against AMARE; conditions: 20 g a.i./ha
# Procedure: as §1
# Matricaria inodora = assay: Post-emergence herbicidal action against MATIN; conditions: 20 g a.i./ha
# Procedure: as §1
# Pharbitis purpurea = assay: Post-emergence herbicidal action against PHBPU; conditions: 20 g a.i./ha
# Procedure: as §1
# Polygonum convolvulus = assay: Post-emergence herbicidal action against POLCO; conditions: 20 g a.i./ha
# Procedure: as §1
# Veronica persica = assay: Post-emergence herbicidal action against VERPE
# Procedure: as §1
# Stellaria media = assay: Post-emergence herbicidal action against STEME; conditions: 80 g a.i./ha
# Procedure: as §1
# Hordeum murinum = assay: Post-emergence herbicidal action against HORMU
# Procedure: as §1
Structure (SMILES),Herbicidal action against [%] ALOMY (Alopecurus myosuroides; 20 g a.i./ha) [%],Herbicidal action against [%] AVEFA (Avena fatua; 20 g a.i./ha) [%],Herbicidal action against [%] DIGSA (DIGSA; 20 g a.i./ha) [%],Herbicidal action against [%] ECHCG (Echinochloa crus-galli; 20 g a.i./ha) [%],Herbicidal action against [%] LOLRI (Lolium rigidum; 20 g a.i./ha) [%],Herbicidal action against [%] SETVI (Setaria viridis; 20 g a.i./ha) [%],Herbicidal action against [%] ABUTH (Abutilon theophrasti) [%],Herbicidal action against [%] AMARE (Amaranthus retroflexus) [%],Herbicidal action against [%] MATIN (Matricaria inodora) [%],Herbicidal action against [%] PHBPU (Pharbitis purpurea) [%],Herbicidal action against [%] POLCO (Polygonum convolvulus) [%],Herbicidal action against [%] VERPE (Veronica persica; 20 g a.i./ha) [%],further results
CCSCCOC(=O)C1C=CC(NC(=O)C2(C)CC(c3cc(F)cc(F)c3)=NO2)C1 (stereo not drawn) [Example I-02],100,90,90,90,90,90,90,90,80,80,90,90,
COC1(C(=O)NC2C=CC(C(=O)OCCSC)C2)CC(c2cc(F)cc(F)c2)=NO1 (stereo not drawn) [Example I-20],90,90,80,90,90,80,80,80,80,80,,80,
COC(=O)CSCCOC(=O)C1C=CC(NC(=O)C2(C)CC(c3cc(F)cc(F)c3)=NO2)C1 (stereo not drawn) [Example I-64],90,90,90,90,90,80,80,90,90,80,80,80,
COC1(C(=O)NC2C=CC(C(=O)OCCSC(=O)C(C)C)C2)CC(c2cc(F)cc(F)c2)=NO1 (stereo not drawn) [Example I-23],90,90,90,90,90,80,80,80,80,80,80,90,
CC1(C(=O)NC2C=CC(C(=O)OCCSCc3ccc(F)cc3)C2)CC(c2cc(F)cc(F)c2)=NO1 (stereo not drawn) [Example I-09],90,90,90,90,90,90,80,90,,80,80,90,
CC1(C(=O)NC2C=CC(C(=O)OCCSc3ccccc3)C2)CC(c2cc(F)cc(F)c2)=NO1 (stereo not drawn) [Example I-16],90,90,80,80,,80,80,,80,80,80,80,
CSCCOC(=O)C1C=CC(NC(=O)C2(CCl)CC(c3cc(C)cc(F)c3)=NO2)C1 (stereo not drawn) [Example I-57],80,,,,,,,,80,,,,
C=CC1(C(=O)NC2C=CC(C(=O)OCCSC)C2)CC(c2cc(F)cc(C#N)c2)=NO1 (stereo not drawn) [Example I-39],90,90,90,90,90,90,80,80,,80,80,90,
CC1(C(=O)NC2C=CC(C(=O)OCCSCC(F)(F)F)C2)CC(c2cc(F)cc(F)c2)=NO1 (stereo not drawn) [Example I-12],90,,80,80,80,80,,,80,80,80,,
C=CC1(C(=O)NC2C=CC(C(=O)OCCSC)C2)CC(c2cc(C)cc(C)c2)=NO1 (mixture of isomers) [Example I-45],,,,,,,,,,,,80,Herbicidal action against [%] ALOMY (Alopecurus myosuroides; 80 g a.i./ha): 90%; Herbicidal action against [%] AVEFA (Avena fatua; 80 g a.i./ha): 80%; Herbicidal action against [%] ECHCG (Echinochloa crus-galli; 80 g a.i./ha): 80%; Herbicidal action against [%] LOLRI (Lolium rigidum; 80 g a.i./ha): 90%; Herbicidal action against [%] SETVI (Setaria viridis; 80 g a.i./ha): 80%; Herbicidal action against [%] STEME (Stellaria media): 90%; Herbicidal action against [%] VERPE (Veronica persica; 80 g a.i./ha): 80%; Herbicidal action against [%] HORMU (Hordeum murinum; 20 g a.i./ha): 80%; Herbicidal action against [%] HORMU (Hordeum murinum; 80 g a.i./ha): 80%
C[S+]([O-])CCOC(=O)C1C=CC(NC(=O)C2(C)CC(c3cc(F)cc(F)c3)=NO2)C1 (mixture of isomers) [Example I-66],90,80,,80,80,,,80,80,80,80,,
CSCCOC(=O)C1C=CC(NC(=O)C2(C)CC(c3cccc(C#N)c3)=NO2)C1 (stereo not drawn) [Example I-41],80,90,,,,80,,,,,,,Herbicidal action against [%] AVEFA (Avena fatua; 80 g a.i./ha): 100%; Herbicidal action against [%] DIGSA (DIGSA; 80 g a.i./ha): 80%; Herbicidal action against [%] LOLRI (Lolium rigidum; 80 g a.i./ha): 80%; Herbicidal action against [%] SETVI (Setaria viridis; 80 g a.i./ha): 80%; Herbicidal action against [%] STEME (Stellaria media): 80%; Herbicidal action against [%] VERPE (Veronica persica; 80 g a.i./ha): 80%; Herbicidal action against [%] HORMU (Hordeum murinum; 20 g a.i./ha): 80%; Herbicidal action against [%] HORMU (Hordeum murinum; 80 g a.i./ha): 90%
CC1(C(=O)NC2C=CC(C(=O)OCCSC(F)(F)F)C2)CC(c2cc(F)cc(F)c2)=NO1 (stereo not drawn) [Example I-13],90,90,80,,80,80,80,,80,,,80,
COC1(C(=O)NC2C=CC(C(=O)OCCSC(C)C)C2)CC(c2cc(F)cc(F)c2)=NO1 (stereo not drawn) [Example I-25],90,90,90,80,90,90,80,80,,80,80,80,
CSCCOC(=O)C1C=CC(NC(=O)C2(CF)CC(c3cc(F)cc(C#N)c3)=NO2)C1 (stereo not drawn) [Example I-65],90,80,,80,80,,80,80,80,,90,80,
C=CC1(C(=O)NC2C=CC(C(=O)OCCSC)C2)CC(c2cc(Cl)cc(Cl)c2)=NO1 (stereo not drawn) [Example I-55],100,80,80,,,90,80,90,80,80,80,90,
